The test system of this assay is SKM MYOFIBRIL
As to the kind of experiment: SKM myofibril AC1.4 (ATPase, PK/LDH coupled enzyme system). Also: unit not given here. The class given is biochemical. The note with it: screen at pCa=6.5.
Turning to `Cc1cccn2c(NC3CCCC3)c(-c3ccccc3O)nc12` [2-[3-(cyclopentylamino)-8-methyl-4-hydroimidazo[1,2-a]pyridin-2-yl]phenol], the “SKM MYOFIBRIL AC1.4 (median)” value turned out to be 11.3023.

`CN(C)CCNCc1ccc2nc(-c3ccccc3O)c(NCc3cccc(Cl)c3)n2c1` [2-[6-({[2-(dimethylamino)ethyl]amino}methyl)-3-{[(3-chlorophenyl)methyl]amino}-4-hydroimidazo[1,2-a]pyridin-2-yl]phenol]: the “SKM MYOFIBRIL AC1.4 (median)” value is given as 6.9925. As to `Oc1ccccc1-c1nc2cnccn2c1NCc1cccs1` [2-{3-[(2-thienylmethyl)amino]-4-hydroimidazo[1,2-a]pyrazin-2-yl}phenol], the “SKM MYOFIBRIL AC1.4 (median)” value was determined as 10.6577.

`Cc1ccn2c(NCc3ccccc3)c(-c3ccccc3O)nc2c1` [2-{7-methyl-3-[benzylamino]-4-hydroimidazo[1,2-a]pyridin-2-yl}phenol]: the “SKM MYOFIBRIL AC1.4 (median)” value amounted to 2.0618.

For the compound `Cc1ccn2c(NCC(=O)N3CCCCC3)c(-c3ccccc3O)nc2c1` [2-{[2-(2-hydroxyphenyl)-7-methyl(4-hydroimidazo[1,2-a]pyridin-3-yl)]amino}-1-piperidylethan-1-one], the “SKM MYOFIBRIL AC1.4 (median)” value is listed as 40.2086. Take `COc1cccc2nc(O)c(-c3nc4cc(C)ccn4c3NCc3cccc(Cl)c3)cc12` [3-(3-{[(3-chlorophenyl)methyl]amino}-7-methyl(4-hydroimidazo[1,2-a]pyridin-2-yl))-5-methoxyquinolin-2-ol]: the “SKM MYOFIBRIL AC1.4 (median)” value is 2.3608.

As for `Cc1ccc2cc(-c3nc4cc(C)ccn4c3NCc3cccc(Cl)c3)c(O)nc2c1` [3-(3-{[(3-chlorophenyl)methyl]amino}-7-methyl(4-hydroimidazo[1,2-a]pyridin-2-yl))-7-methylquinolin-2-ol], the “SKM MYOFIBRIL AC1.4 (median)” value came to 9.2086. Take `Cc1ccc2cc(-c3nc4cc(C)ccn4c3NCc3ccc(F)cc3)c(O)nc2c1` [3-(3-{[(4-fluorophenyl)methyl]amino}-7-methyl(4-hydroimidazo[1,2-a]pyridin-2-yl))-7-methylquinolin-2-ol]: the “SKM MYOFIBRIL AC1.4 (median)” value worked out at 38.7091.

Regarding `N#Cc1ccc2nc(-c3ccc(O)cc3)c(NC3CCCC3)n2c1` [3-(cyclopentylamino)-2-(4-hydroxyphenyl)-4-hydroimidazo[1,2-a]pyridine-6-carbonitrile], the “SKM MYOFIBRIL AC1.4 (median)” value turned out to be 46.9669.

For `N#Cc1ccn2c(NC3CCCC3)c(-c3ccc(O)cc3)nc2c1` [3-(cyclopentylamino)-2-(4-hydroxyphenyl)-4-hydroimidazo[1,2-a]pyridine-7-carbonitrile], the “SKM MYOFIBRIL AC1.4 (median)” value is 17.9621. As for `CCC(C)(C)Nc1c(-c2cc3cc(C)ccc3nc2O)nc2ccccn12` [3-{3-[(1,1-dimethylpropyl)amino](4-hydroimidazo[1,2-a]pyridin-2-yl)}-6-methylquinolin-2-ol], the “SKM MYOFIBRIL AC1.4 (median)” value was found to be 1.1087. As for `CCC(C)(C)Nc1c(-c2cc3ccc(C)c(C)c3nc2O)nc2ccccn12` [3-{3-[(1,1-dimethylpropyl)amino](4-hydroimidazo[1,2-a]pyridin-2-yl)}-7,8-dimethylquinolin-2-ol], the “SKM MYOFIBRIL AC1.4 (median)” value is 1.5814. Regarding `CCC(C)(C)Nc1c(-c2cc3cccc(C)c3nc2O)nc2ccccn12` [3-{3-[(1,1-dimethylpropyl)amino](4-hydroimidazo[1,2-a]pyridin-2-yl)}-8-methylquinolin-2-ol], the “SKM MYOFIBRIL AC1.4 (median)” value amounted to 2.3075. Take `O=C(c1ccc2nc(-c3ccccc3O)c(NCc3cccc(Cl)c3)n2c1)N1CCOCC1` [3-{[(3-chlorophenyl)methyl]amino}-2-(2-hydroxyphenyl)(4-hydroimidazo[1,2-a]pyridin-6-yl) morpholin-4-yl ketone]: the “SKM MYOFIBRIL AC1.4 (median)” value is reported as 24.9925. The figure for `N#Cc1ccc2nc(-c3ccccc3O)c(NCc3cccc(Cl)c3)n2c1` [3-{[(3-chlorophenyl)methyl]amino}-2-(2-hydroxyphenyl)-4-hydroimidazo[1,2-a]pyridine-6-carbonitrile] is 2.6805.

For the origin of these results see patent US20100173930A1, “Certain Chemical Entities, Compositions and Methods” (priority 2006, published 2010).
